In article PMC11770746 (Journal of Medicinal Chemistry, 2025):

Columns and labels:
[1] = Stability of the Pt(IV) compounds in RPMI medium, monitored by HPLC; type: physicochemical; conditions: pH = 7, 37 °C, HPLC peak area
Procedure: The stability of the Pt(IV) compounds was measured in RPMI medium, at pH = 7 and 37 °C, by monitoring the peak area of the prodrugs as a function of time.
Pt(IV) complexes were dissolved in 1% DMSO and RPMI medium at pH 7.4, and kept at 37 °C. Stability half-lives, t1/2, were calculated by linear fitting of ln(At/A0) vs time (t), where At and A0 are the integrated peak areas by HPLC […].

[2] = Reduction by 10 equiv of ascorbic acid, monitored by HPLC; type: physicochemical; conditions: 10 eq. ascorbic acid, pH = 7, 37 °C
Procedure: To verify that the Pt(IV) prodrugs are activated by reduction, we incubated them with 10 eq. of ascorbic acid at pH = 7 at 37 °C and monitored by HPLC the reduction of the peak of the parent compound as a function of time.
The half-lives (t1/2) of all compounds were obtained after linear fitting of ln(At/A0) vs time (t) by considering a pseudo-first-order rate equation (At = A0e^–kt), where A0 and At are the integrated areas of HPLC peaks of the respective complexes at t = 0 and at time t, respectively, and k (slope) is the rate constant. Then, t1/2 was calculated by utilizing the equation t1/2 = 0.693/k.

[3] = test system: mice; assay: Mechanical allodynia, von Frey assay; conditions: for mechanical allodynia (in words): compared with the untreated mice
Procedure: (§1) Von Frey, hot plate, acetone evaporation, and ocular aperture ratio studies were carried out in Balb/c mice according to reported methods.[3] […] Final injection volume was 150 μL. Afterward, tests were carried out 1, 2, and 3 weeks post first injection.
8-week-old Balb/c mice were purchased from Envigo (Israel). Pain thresholds were assessed by observing withdrawal responses to mechanical stimulation of the plantar skin by using von Frey filaments. The mice were placed on a grid and allowed to accustom to the new environment for at least half an hour. The hind paw was touched vertically on the plantar surface with the tip of the filament. Once the fiber bends, the force applied is the maximum, making the repetitions reproducible. Hairs calibrated for forces between 0.008 and 2 g were applied 10 times each in ascending order of force at 5 s intervals to both hind paws. Sharp and quick leg withdrawal or immediate jumping in response to a touch with the hairs was considered as a withdrawal response. Paw movements associated with locomotion were not counted as the withdrawal response. The threshold of withdrawal response was defined when 6 out of 10 applications elicited pain responses. each group contained six animals.

[4] = test system: mice; type: in vivo; conditions: hot plate 54 ± 1 °C; compared with cisplatin, paclitaxel, or their 1:1 co-administration
Procedure: (§2) The sensitivity to noxious heat was assessed by placing the mice on a hot plate (54 ± 1 °C) and measuring the latency (s), the time until the mice began licking their paws, shaking, or jumping to avoid the heat.
as §1
Unrestrained mouse was placed on a metal surface that was maintained at a constant temperature (54 ± 1 °C) and the response latency, which is the time taken to observe a nocifensive behavior, was recorded. These behaviors include fore paw withdrawal or licking, hind paw withdrawal or licking, stamping, leaning posture, and jumping. each group contained six animals. If no nocifensive behaviors were observed, the animals were removed from the hot plate after 30 s to prevent tissue damage.

[5] = test system: mice; type: in vivo; conditions: acetone test; compared with cisplatin, paclitaxel, or their 1:1 co-administration
Procedure: as §2, §1
The test was carried out on a mesh floor, and acetone was dabbed on the plantar surface of the hind paw. Sensitivity to cold was recorded by the duration of nocifensive responses such as brisk withdrawal, flick of the paw, repeated flicking of the paw, repeated flicking of the hind paw, and licking of the paw. each group contained six animals.

[6] = test system: mice; assay: Ongoing pain, eye-closing ratio; type: in vivo; conditions: i.p. days 1, 3, 5
Procedure: Finally, we assessed whether the treatment with cisPt(OAc)2 or cisPt(Pac)(OH) prevents chemotherapy-induced ongoing pain, by assessing the eye-closing ratio.[53]−[55] The eye-closing ratio test was carried out prior to conducting the induced pain experiments. The eye-closing ratio was obtained by dividing the distance between the edges of the upper and lower eyelids by the length of the canthus (horizontal distance across the eye), where a value of 0 was given to completely closed eyes (indicating pain), and a value of 1 was given to fully open eyes (lack of pain).
as §1
The raw data for the ongoing pain was obtained by taking 3–5 photographs of each of the awake (not immobilized) mice and used such that the position of the eyelids in relation to the eye was clearly visible. The data were analyzed in a blind fashion by using the imaging software, ImageJ, to measure the length between the internal and external canthus (x) and the distance between the edge of the upper and lower eyelids (y). Finally, the ratio of y/x was calculated, and a value between 0 and 1 was obtained for each photo, where 0 is equivalent to the eye completely closed and 1 is equivalent to the eye completely open. The values obtained were an average of the values of the six animals in each group.

[7] = test system: kidney; conditions: mouse, in vivo
Source text: At the end of the experiments, mice were euthanized, and the tumor, spleen, liver, and kidneys were isolated and analyzed in terms of platinum content by ICP-MS (Figure 4F).
All of the kidney (left kidney) samples were flash-frozen immediately after weighing for cryosections for the histopathological evaluation using H&E staining technique. The tissues were embedded in the OCT compound and 10 μm thick sections were cut and placed onto glass slides using the Leica CM3050 S Cryostat. The slides were dried in a desiccator for approximately 1 h before rinsing in water. Sections are ready for staining immediately after rinse. The slides were stained with H&E (Hematoxylin and eosin) using Leica Autostainer XL. Then, the slides were dehydrated through ascending series of ethanol to xylene before being coverslipped using Leica Coverslipper CV5030. The slides were imaged using the LABOMED Opti CX biological microscope. At least two sections of each kidney sample were stained and 5–10 images were taken for each section under 10× and 40× magnifications. The images were analyzed for histopathological changes by two pathologists in a blinded manner.

[8] = test system: A2780 ovarian carcinoma cells; assay: Antiproliferative MTT assay, 72 h; type: cell-based, human; conditions: A2780, 72 h treatment
Procedure: (§4) After 72 h of exposure, the cell biomass was determined by 3-(4,5-dimethylthiazol-2-yl)-2,5-diphenyl tetrazolium bromide (MTT) (Sigma-Aldrich) staining, and the absorptions were calculated as the delta of two measurements of the same well at wavelengths 570 and 690 nm. IC50 values were determined as the concentration that caused 50% inhibition of cell proliferation compared to an untreated control. The results were calculated as the mean values of three independent experiments.
(§5) PC9 human non-small-cell lung carcinoma cells, A375 human malignant melanoma cells, and CT26 WT murine colon carcinoma cells were maintained in DMEM (high glucose, no glutamine/sodium pyruvate) supplemented with L-glutamine solution (4 mM) (2% v/v), 10% (v/v) heat-inactivated fetal bovine serum (South American origin, European grade), and 1% (v/v) penicillin–streptomycin solution (containing penicillin G sodium salt: 10 000 units/mL and streptomycin sulfate: 10 mg/mL) and were passaged twice a week.

[9] = test system: A2780cisR cisplatin-resistant ovarian carcinoma cells; assay: Antiproliferative MTT assay, 72 h; type: cell-based, human; conditions: 72 h treatment
Procedure: as §4, §5

[10] = Platinum accumulation in organs and tumor by ICP-MS (CT26 study); type: in vivo, mice; conditions: ICP-MS at end of the CT26 experiment
Procedure: Four-week-old female BALB/cAnNTac mice weighing 16–18 g were purchased from InVivos (Singapore). The animals were housed in Comparative Medicine (CM)-holding units at the National University of Singapore in a pathogen-free environment at constant temperature in a 12/12 h light/dark cycle environment. The mice were acclimatized for 3 days and given access to food and water ad libitum. The mouse colon carcinoma cells CT26 (1 × 10^5 cells in 100 μL of sterile PBS) were subcutaneously injected into the right flank of the mice. The administration of tested compounds was started when tumors became palpable (volume of ∼30 mm^3) on day 13. Subsequently, the animals were separated into 5 groups (n = 6 each) and injected i.p. with different compounds every other day up to 4 doses. Control mice were injected ip with 100 μL of sterile saline. The animals were controlled for pain and/or distress development, and the body weight and tumor size were closely monitored. All animals were alert and responsive during the whole experiment. The mice were euthanized when the diameter of the tumor reached 1.5 cm or upon development of ulceration. The tumor and organs (liver, kidney, and spleen) were collected […].
(§3) Samples were weighed and mineralized with highly pure 70% nitric acid (Pt: ≤0.01 μg kg^–1, TraceSELECT Ultra, Sigma Chemical Co.) for 3 h. Afterward, solutions were completely dried at 110 °C and 1000 μL of 1% HNO3 was added. The platinum content of each sample was measured by ICP-MS. The calibration curve was obtained using known concentrations of standard solutions purchased from Sigma Chemical Co.

[11] = test system: all cancer cell lines; assay: Antiproliferative MTT assay, summary over the panel; type: cell-based; conditions: all cancer cell lines of the panel, 72 h
Procedure: as §4

[12] = test system: A375 melanoma cells; assay: Antiproliferative MTT assay, 72 h; type: cell-based, human
Procedure: as §4, §5

[13] = test system: murine CT26 colon cancer model; assay: In vivo inhibition of tumor growth; conditions: CT26 s.c. in BALB/c mice, i.p. every other day up to 4 doses, equimolar: cisplatin 3, paclitaxel 8.5, combination 3 + 8.5, cisPt(Pac)(OH) and its micelles 12 mg/kg
[14] = test system: PC9 non-small-cell lung cancer cells; assay: Antiproliferative MTT assay, 72 h; type: cell-based, human; conditions: PC9, 72 h treatment
Procedure: as §4, §5

[15] = test system: CT26 murine colon cancer cells; assay: Antiproliferative MTT assay, 72 h; type: cell-based; conditions: CT26, 72 h treatment
Procedure: as §4, §5

[16] = Body weight changes in the CT26 efficacy study (general toxicity); type: in vivo, mice; conditions: i.p., equimolar doses
Procedure: Four-week-old female BALB/cAnNTac mice weighing 16–18 g were purchased from InVivos (Singapore). The animals were housed in Comparative Medicine (CM)-holding units at the National University of Singapore in a pathogen-free environment at constant temperature in a 12/12 h light/dark cycle environment. The mice were acclimatized for 3 days and given access to food and water ad libitum. The mouse colon carcinoma cells CT26 (1 × 10^5 cells in 100 μL of sterile PBS) were subcutaneously injected into the right flank of the mice. The administration of tested compounds was started when tumors became palpable (volume of ∼30 mm^3) on day 13. Subsequently, the animals were separated into 5 groups (n = 6 each) and injected i.p. with different compounds every other day up to 4 doses. Control mice were injected ip with 100 μL of sterile saline. The animals were controlled for pain and/or distress development, and the body weight and tumor size were closely monitored. […] The mice were euthanized when the diameter of the tumor reached 1.5 cm or upon development of ulceration.

[17] = Platinum accumulation in the DRG by ICP-MS; type: in vivo, mice; conditions: day 7 after injections on days 1, 3, 5
Procedure: To explore whether the differences in the behavioral tests between cisplatin, cisplatin + paclitaxel, and cisPt(Pac)(OH) correlate with platinum accumulation in the DRG, we quantified the platinum in the DRG.
Afterward, on days 7–10, animals from each group were anesthetized using isoflurane and decapitated. Thereafter, DRG were removed and placed in DDW at room temperature.
as §3

Row | Compound | t1/2 RPMI 1640 [1] [h] | t1/2 10 equiv Asc [2] [h] | thermal hyperalgesia [4] | cold allodynia [5] | ongoing (spontaneous) pain [6] | IC50 [8] [nM] | IC50 [9] [nM] | levels of Pt in the kidneys [10] | platinum levels in the tumor [10] | IC50 values (in words) [11] | IC50 ([12]; A375, 72 h treatment) [nM] | mechanical allodynia (in words) ([3]; von Frey) | Inhibition of Tumor Growth (TGI) [13] [%] | IC50 [14] [nM] | IC50 [15] [nM] | other results
1 | CC(=O)[O][Pt]1([O]C(C)=O)[O]C(=O)C(=O)[O]1.NC1CCCCC1N [Oxali(OAc)2] | 742 | 63 | – | – | – | – | – | – | – | – | – | – | – | – | – | neuropathic pain by withdrawal thresholds to mechanical stimuli ([3]; male and female mice, 5.19 mg/kg i.p. days 1, 3, 5): did not induce neuropathic pain
2 | CC(=O)[O][Pt]([Cl])([Cl])[O]C(C)=O.N.N [cisPt(OAc)2] | 120 | 7.8 | significantly reduced | significantly reduced cold allodynia | did not induce any ongoing pain | – | – | – | – | – | – | – | – | – | – | –
3 | N.N.[Cl][Pt][Cl] [cisplatin] | – | – | – | – | substantial spontaneous pain | 1180 ± 130 | 16200 ± 3140 | high levels of Pt | rather similar | low μM | 1910 ± 620 | persistent reduction in the withdrawal threshold | 41 | 5290 ± 1750 | 5890 ± 1190 | histopathological changes of the kidney tubules [7]: focal tubular necrosis; reduction of withdrawal threshold ([3]; von Frey, compared with untreated mice): about 95%
4 | CC(=O)O[C@H]1C(=O)[C@@]2(C)[C@H]([C@H](OC(=O)c3ccccc3)[C@]3(O)C[C@H](OC(=O)[C@H](O)[C@@H](NC(=O)c4ccccc4)c4ccccc4)C(C)=C1C3(C)C)[C@]1(OC(C)=O)CO[C@@H]1C[C@@H]2O [paclitaxel] | – | – | – | – | substantial spontaneous pain | – | – | – | – | low nM | – | persistent reduction in the withdrawal threshold | 27 | – | – | IC50 ([8]; Homo sapiens): 2.2 ± 1 nM; IC50 ([9]; Homo sapiens): 3 ± 1 nM; IC50 ([12]; Homo sapiens, A-375, A375, 72 h treatment): 14 ± 4 nM; IC50 ([14]; Homo sapiens): 4.5 ± 2 nM; IC50 ([15]; Mus musculus): 384 ± 109 nM
5 | ctc-[Pt(NH3)2(Pac)(OH)Cl2] [cisPt(Pac)(OH)] | 35 | 0.16 | significantly reduced | significantly reduced cold allodynia | did not induce any ongoing pain | 4.5 ± 2 | 5.9 ± 0.1 | much lower levels | rather similar | low nM | 18 ± 3 | – | 65 | 6 ± 1 | 406 ± 106 | kidney toxicity (creatinine and histopathology) [7]: lower kidney toxicity; body weight loss compared to the control [16]: did not exhibit any substantial weight loss; platinum levels in the DRG [17]: lower than after treatment with cisplatin or the co-treatment with cisplatin and paclitaxel
